Assay [1] concerns the target KRAS G12C (Homo sapiens, UniProt P01116, G12C). The experiment in a line: KRAS G12C GDP-GTP exchange assay (bodipy-GDP for GppNHp, with SOS1). It is filed as biochemical. Particulars: 2.5 nM bodipy-loaded KRAS G12C, 2 hours pre-incubation with inhibitor, 2 hours after GppNHp-SOS1; read-out: G12C_exchange (KRAS_G12C exchange assay IC50). The method, then: The inhibitor potency of the exemplified compounds was determined in a fluorescence based guanine nucleotide exchange assay, which measures the exchange of bodipy-GDP (fluorescently labeled GDP) for GppNHp (Non-hydrolyzable GTP analog) to generate the active state of KRAS in the presence of SOS1 (guanine nucleotide exchange factor). Inhibitors were serially diluted in DMSO and a volume of 0.1 μL was transferred to the wells of a black low volume 384-well plate. 5 μL/well volume of bodipy-loaded KRAS G12C diluted to 5 nM in assay buffer (25 mM Hepes pH 7.5, 50 mM NaCl, 10 mM MgCl2 and 0.01% Brij-35) was added to the plate and pre-incubated with inhibitor for 2 hours at ambient temperature. Appropriate controls (enzyme with no inhibitor or with a G12C inhibitor (AMG-510)) were included on the plate. The exchange was initiated by the addition of a 5 μL/well volume containing 1 mM GppNHp and 300 nM SOS1 in assay buffer. The 10 μL/well reaction concentration of the bodipy-loaded KRAS G12C, GppNHp, and SOS1 were 2.5 nM, 500 uM, and 150 nM, respectively. The reaction plates were incubated at ambient temperature for 2 hours, a time estimated for complete GDP-GTP exchange in the absence of inhibitor. For the KRAS G12D and G12V mutants, similar guanine nucleotide exchange assays were used with 2.5 nM as final concentration for the bodipy loaded KRAS proteins and with 4 hours and 3 hours incubation after adding GppNHp-SOS1 mixture for G12D and G12V respectively. A cyclic peptide described to selectively bind G12D mutant (Sakamoto et al., BBRC 484.3 (2017), 605-611) or internal compounds with confirmed binding were used as positive controls in the assay plates. Fluorescence intensities were measured on a PheraStar plate reader instrument (BMG Labtech) with excitation at 485 nm and emission at 520 nm.
Either GraphPad prism or XLfit was used to analyze the data. The IC50 values were derived by fitting the data to a four parameter logistic equation producing a sigmoidal dose-response curve with a variable Hill coefficient. Prism equation: Y=Bottom+(Top−Bottom)/(1+10^((Log IC50−X)*Hill slope)); XLfit equation: Y=(A+((B−A)/(1+((X/C)^D)))) where X is the logarithm of inhibitor concentration and Y is the response.

Assay [2] concerns MIA PaCa-2 (KRAS G12C) cells. The experiment in a line: KRAS_G12C cellular pERK HTRF assay. The assay is classed as cell-based, human. Particulars: Homo sapiens, MIA PaCa-2; phospho-ERK1/2 HTRF, 4 hours incubation; read-out: G12C_pERK (KRAS_G12C pERK assay IC50). On the procedure: MIA PaCa-2 (KRAS G12C; ATCC® CRL-1420), A427 (KRAS G12D; ATCC® HTB53), HPAF-II (KRAS G12D; ATCC® CRL-1997) and NCI-H838 (KRAS WT; ATCC® CRL-5844) cells are purchased from ATCC and maintained in RPMI 1640 media supplemented with 10% FBS (Gibco/Life Technologies). The cells are plated at 5000 cells per well (8 uL) into Greiner 384-well low volume, flat-bottom, tissue culture treated white plates and incubated overnight at 37° C., 5% CO2. The next morning, test compound stock solutions are diluted in media at 3× the final concentration, and 4 uL are added to the cells. The plate is mixed by gentle rotation for 30 seconds (250 rpm) at room temperature. The cells are incubated with the KRAS G12C and G12D compounds for 4 hours or 2 hours respectively at 37° C., 5% CO2.
4 uL of 4× lysis buffer with blocking reagent (1:25) (Cisbio) are added to each well and plates are rotated gently (300 rpm) for 30 minutes at room temperature. 4 uL per well of Cisbio anti Phospho-ERK 1/2 d2 is mixed with anti Phospho-ERK 1/2 Cryptate (1:1) are added to each well, mixed by rotation and incubated overnight in the dark at room temperature. Plates are read on the Pherastar plate reader at 665 nm and 620 nm wavelengths. IC50 determination is performed by fitting the curve of inhibitor percent inhibition versus the log of the inhibitor concentration using the GraphPad Prism 7 software.
Background: In TR-FRET formats the signal depends on donor and acceptor labels being close together.

Where only a bound is given, the exact number is not on record here.

Sequence of KRAS G12C (P01116 1-188 isoform P01116-2 G12C): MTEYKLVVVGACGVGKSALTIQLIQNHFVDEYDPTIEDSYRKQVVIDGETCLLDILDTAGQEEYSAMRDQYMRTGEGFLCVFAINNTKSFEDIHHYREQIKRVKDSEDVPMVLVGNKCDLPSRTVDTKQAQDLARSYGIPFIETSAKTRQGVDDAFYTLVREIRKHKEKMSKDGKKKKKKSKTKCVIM

For the compound `Cc1cc2c(nc(N3CC(C)(N(C)C)C3)c3cnn([C@H]4CCN(C(=O)/C=C/CF)[C@H](CC#N)C4)c32)c(F)c1-c1cccc2cccc(C#N)c12` (single isomer, unassigned) [Example 58a], the IC50 in assay [1] and in assay [2] was no more than 100 nM each time.
For `C=C(F)C(=O)N1CC[C@H](n2ncc3c(N4CC(C)(N(C)C)C4)nc4c(F)c(-c5cccc6cccc(C#N)c56)c(C)cc4c32)C[C@H]1CC#N` (single isomer, unassigned) [Example 59a], the half-maximal inhibitory concentration (IC50) in assay [1] and in assay [2] was no more than 100 nM in each case.
For the compound `CC#CC(=O)N1CC[C@H](n2ncc3c(N4CC(C)(N(C)C)C4)nc4c(F)c(-c5cccc6cccc(C#N)c56)c(C)cc4c32)C[C@H]1CC#N` (single isomer, unassigned) [Example 60a], the IC50 in assay [1] and in assay [2] was no more than 100 nM in each case.
Regarding `COC/C=C/C(=O)N1CC[C@H](n2ncc3c(N4CC(C)(N(C)C)C4)nc4c(F)c(-c5cccc6cccc(C#N)c56)c(C)cc4c32)C[C@H]1CC#N` (single isomer, unassigned) [Example 61a], the IC50 in assay [1] and in assay [2] was no more than 100 nM throughout.
For `Cc1cc2c(nc(N3CC(C)(N(C)C)C3)c3cnn([C@H]4CCN(C(=O)/C=C/CN(C)C)[C@H](CC#N)C4)c32)c(F)c1-c1cccc2cccc(C#N)c12` (single isomer, unassigned) [Example 62a], the IC50 in assay [1] and in assay [2] was no more than 100 nM in each case.
With `Cc1cc2[nH]ncc2c(-c2c(C)cc3c(nc(N4CC(C)(N(C)C)C4)c4cnn([C@H]5CCN(C(=O)/C=C/CF)[C@H](CC#N)C5)c43)c2F)c1C` (single isomer, unassigned) [Example 64a], the half-inhibitory concentration (IC50) in assay [1] and in assay [2] was no more than 100 nM in each case.
With `COC/C=C/C(=O)N1CC[C@H](n2ncc3c(N4CC(C)(N(C)C)C4)nc4c(F)c(-c5c(C)c(C)cc6[nH]ncc56)c(C)cc4c32)C[C@H]1CC#N` (single isomer, unassigned) [Example 65a], the IC50 in assay [1] and in assay [2] was no more than 100 nM in each case.
Regarding `Cc1cc2[nH]ncc2c(-c2c(C)cc3c(nc(N4CC(C)(N(C)C)C4)c4cnn([C@H]5CCN(C(=O)/C=C/CN(C)C)[C@H](CC#N)C5)c43)c2F)c1C` (single isomer, unassigned) [Example 66a], the 50% inhibitory concentration (IC50) in assay [1] and in assay [2] was no more than 100 nM each time.
As to `Cc1cc2[nH]ncc2c(-c2c(C)cc3c(nc(O[C@@H](C)[C@@H]4CCCN4C)c4cnn([C@H]5CCN(C(=O)/C=C/CF)[C@H](CC#N)C5)c43)c2F)c1C` (single isomer, unassigned) [Example 67b], the IC50 in assay [1] and in assay [2] was no more than 100 nM each time.
For the compound `C=C(F)C(=O)N1CC[C@H](n2ncc3c(O[C@@H](C)[C@@H]4CCCN4C)nc4c(F)c(-c5c(C)c(C)cc6[nH]ncc56)c(C)cc4c32)C[C@H]1CC#N` (single isomer, unassigned) [Example 68b], the half-maximal inhibitory concentration (IC50) in assay [1] and in assay [2] was no more than 100 nM each time.
As to `CC#CC(=O)N1CC[C@H](n2ncc3c(O[C@@H](C)[C@@H]4CCCN4C)nc4c(F)c(-c5c(C)c(C)cc6[nH]ncc56)c(C)cc4c32)C[C@H]1CC#N` (single isomer, unassigned) [Example 69b], the IC50 in assay [1] and in assay [2] was no more than 100 nM throughout.
Turning to `COC/C=C/C(=O)N1CC[C@H](n2ncc3c(O[C@@H](C)[C@@H]4CCCN4C)nc4c(F)c(-c5c(C)c(C)cc6[nH]ncc56)c(C)cc4c32)C[C@H]1CC#N` (single isomer, unassigned) [Example 70b], the concentration for half-maximal inhibition (IC50) in assay [1] and in assay [2] was no more than 100 nM in each case.
Regarding `Cc1cc2[nH]ncc2c(-c2c(C)cc3c(nc(O[C@@H](C)[C@@H]4CCCN4C)c4cnn([C@H]5CCN(C(=O)/C=C/CN(C)C)[C@H](CC#N)C5)c43)c2F)c1C` (single isomer, unassigned) [Example 71b], the 50% inhibitory concentration (IC50) in assay [1] and in assay [2] was no more than 100 nM throughout.

As usually defined, the IC50 is the midpoint of a concentration-inhibition curve.

Values taken from patent publication US20210355121A1, “FUSED TRICYCLIC KRAS INHIBITORS” (Incyte Corporation, priority 2020, published 2021).
